# Assay results taken from patent US10775394B2, “Immunoassay for phenethylamines of the 2C and DO sub-families” (Randox Laboratories Limited, priority 2013, dated 2020).
# Structures can show the parent of a compound that is named as a salt.
# How the values were obtained:
# [1] = tested on: Randox MDPV kit; details: compared to 100% for (±)-MDPV, Swortwood et al 2013, Table 7; cited from earlier work
# [2] = tested on: Randox mephedrone/methcathinone kit; details: compared to 100% for (±)-mephedrone, Swortwood et al 2013, Table 7; cited from earlier work
# [3] = tested on: AxSYM amphetamine/methamphetamine II assay; details: even when tested at 5,000 ng/mL, Petrie et al 2013; cited from earlier work
# [4] = tested on: CEDIA amphetamine/ecstasy immunoassay; details: CEDIA assay; tested at 5,000 ng/ml; Petrie et al 2013; cited from earlier work
# [5] = tested on: DO antibody 2 (IgG fraction of antiserum raised to DOB-BSA); test: Competitive microtitre plate ELISA, DO antibody 2 (antiserum raised to DOB-BSA); assay type: binding; details: for % Cross reactivity: DO antibody 2, relative to DOB = 100
# Description: The wells of an enhanced binding 96 well polystyrene microtitre plate were coated with IgG fraction of antiserum raised to DOB-BSA, diluted in 10 mM Tris, pH8.5 (125 μl/well). The appropriate antibody coating dilution was determined using standard ELISA checkerboard techniques. The plate was incubated for 2 hours at 37° C., washed 4 times over 10 minutes with Tris buffered saline containing Tween 20 (TBST) and tapped dry. Standard solutions of DOB were prepared in TBST at 0, 0.625, 1.25, 2.5, 5, 10, 20 & 40 ng/ml, and 50 μl of each was added to the appropriate wells. 75 μl of conjugate (Example 22) diluted in Tris buffer (pH 7.2) containing EDTA, D-mannitol, sucrose, thimerosal and BSA, was added to each of the wells. The appropriate dilution of conjugate was also determined using standard ELISA checkerboard techniques. The plate was incubated at 25° C. for 1 hour. Excess unbound conjugate was removed by washing 6 times over a 10-15 minute period with TBST and tapped dry. 125 μl of tetramethylbenzidine (TMB) substrate solution was added to each well of the plate that was then incubated for 20 minutes in the dark at room temperature. The reaction was terminated by addition of 125 μl 0.2 M H2SO4 to each well. The absorbance was measured at 450 nm using a microtitre plate reader. In order to determine the specificity of the competitive ELISAs, standard solutions of a range of structurally similar compounds were prepared in TBST. Using calibration curves generated from these compounds (0-40 ng/ml), the cross-reactivity was determined.
# [6] = tested on: DO antibody 1 (IgG fraction of antiserum raised to DOB-BSA); test: Competitive microtitre plate ELISA, DO antibody 1 (antiserum raised to DOB-BSA); assay type: binding; details: for % Cross-Reactivity: DO antibody 1, relative to DOB = 100%, calibration curves 0-40 ng/ml
# Description: The appropriate antibody coating dilution was determined using standard ELISA checkerboard techniques. The plate was incubated for 2 hours at 37° C., washed 4 times over 10 minutes with Tris buffered saline containing Tween 20 (TBST) and tapped dry. […] The appropriate dilution of conjugate was also determined using standard ELISA checkerboard techniques. The plate was incubated at 25° C. for 1 hour. Excess unbound conjugate was removed by washing 6 times over a 10-15 minute period with TBST and tapped dry. 125 μl of tetramethylbenzidine (TMB) substrate solution was added to each well of the plate that was then incubated for 20 minutes in the dark at room temperature. The reaction was terminated by addition of 125 μl 0.2 M H2SO4 to each well. The absorbance was measured at 450 nm using a microtitre plate reader.
# [7] = tested on: 2C antibody (IgG fraction of antiserum raised to 2C-B-BSA); test: Competitive microtitre plate ELISA, 2C antibody (antiserum raised to 2C-B-BSA); assay type: binding; details: for % Cross-Reactivity / IC50 (standard concentration which produces 50% inhibition of maximal signal): 2C antibody; for % Cross-Reactivity: relative to 2C-B = 100%, calibration curves 0-80 ng/ml; for IC50 (standard concentration which produces 50% inhibition of maximal signal): 2C-B standard, competitive ELISA
# Description: The wells of an enhanced binding 96 well polystyrene microtitre plate were coated with IgG fraction of antiserum raised to 2C-B-BSA, diluted in 10 mM Tris, pH8.5 (125 μl/well). The appropriate antibody coating dilution was determined using standard ELISA checkerboard techniques. The plate was incubated overnight at 4° C., washed 4 times over 10 minutes with Tris buffered saline containing Tween 20 (TBST) and tapped dry. Standard solutions of 2CB were prepared in TBST at 0, 1.25, 2.5, 5, 10, 20, 40 & 80 ng/ml, and 50 μl of each was added to the appropriate wells. 75 μl of conjugate (Example 11) diluted in Tris buffer (pH 7.2) containing EDTA, D-mannitol, sucrose, thimerosal and BSA, was added to each of the wells. The appropriate dilution of conjugate was also determined using standard ELISA checkerboard techniques. The plate was incubated at 25° C. for 1 hour. Excess unbound conjugate was removed by washing 6 times over a 10-15 minute period with TBST and tapped dry. 125 μl of tetramethylbenzidine (TMB) substrate solution was added to each well of the plate that was then incubated for 20 minutes in the dark at room temperature. The reaction was terminated by addition of 125 μl 0.2 M H2SO4 to each well. The absorbance was measured at 450 nm using a microtitre plate reader. In order to determine the specificity of the competitive ELISAs, standard solutions of a range of structurally similar compounds were prepared in TBST. Using calibration curves generated from these compounds (0-80 ng/ml) percentage cross-reactivity was determined.
# [8] = tested on: EMIT II Plus amphetamines assay; details: tested at 5,000 ng/ml, Petrie et al 2013; cited from earlier work
Compound,cross-reactivity [3],cross-reactivity [4],% Cross reactivity [5],% Cross-Reactivity [6],% Cross-Reactivity [7],cross-reactivity [8],further results
CCCC(C(=O)c1ccc2c(c1)OCO2)N1CCCC1 (racemic) [(±)-MDPV],–,–,–,–,–,–,cross-reactivity [1]: 100%
"CNC(C)C(=O)c1ccc(C)cc1 (racemic) [(±)-mephedrone, mephedrone]",–,–,–,–,–,–,cross-reactivity [2]: 100%
"COc1cc(CC(C)N)c(OC)cc1Br (racemic) [DOB, 1-(4-bromo-2,5-dimethoxyphenyl)propan-2-amine]",does not show cross-reactivity,8.5%,100%,100.0%,<1.0%,39.1%,"IC50 ([5]; DO antibody 2, competitive ELISA): IC50 - 0.437 ng/mL; % B/Bo ([6]; DOB 0.625 ng/ml): 64.5%; % B/Bo ([6]; DOB 1.25 ng/ml): 58.1%; % B/Bo ([6]; DOB 2.5 ng/ml): 46.3%; % B/Bo ([6]; DOB 5 ng/ml): 34.6%; % B/Bo ([6]; DOB 10 ng/ml): 27.5%; % B/Bo ([6]; DOB 20 ng/ml): 17.5%; % B/Bo ([6]; DOB 40 ng/ml): 11.5%"
"COc1cc(CC(C)N)c(OC)cc1C (racemic) [DOM, 1-(2,5-dimethoxy-4-methylphenyl)propan-2-amine]",does not show cross-reactivity,3.9%,49%,112.7%,–,23.2%,–
NCCc1ccccc1 [(+)-Phenethylamine],–,–,–,<1.0%,<1.0%,–,binding of the antibody described in Table 2 ([6]; summary in words): not; binding of the antibody described in Table 4 ([7]; summary in words): not
CC(N)Cc1ccccc1 (centres unmarked) [Amphetamine],–,–,–,<1.0%,–,–,–
"CC(N)Cc1c2ccoc2c(Br)c2ccoc12 (centres unmarked) [Bromo DragonFly (HCl), 1-(4-Bromofuro[2,3-f][1]benzofuran-8-yl)propan-2-amine]",–,–,96%,–,–,–,–
"COc1cc(CC(C)N)c(OC)cc1Cl (centres unmarked) [DOC, 4-chloro-2,5dimethoxyamphetamine]",–,–,47%,–,–,–,–
CCc1cc(OC)c(CC(C)N)cc1OC (centres unmarked) [DOET],does not show cross-reactivity,4.8%,50%,–,–,18.8%,–
COc1cc(CC(C)N)c(OC)cc1I.Cl (centres unmarked) [DOI HCl],–,–,73%,–,–,–,–
"COc1cc([N+](=O)[O-])c(OC)cc1CC(C)N (centres unmarked) [DON, 1-(2,5-dimethoxy-4-nitrophenyl)propan-2-amine]",–,–,57%,43.1%,–,–,–
"COc1cc(CCN)c(OC)cc1Br [Hapten 2C-B, 1-(4-bromo-2,5-dimethoxyphenyl)ethan-2-amine]",does not show cross-reactivity,3.0%,–,<1.0%,100.0%,36.0%,% B/Bo ([7]; 2C-B 1.25 ng/ml): 86.8%; % B/Bo ([7]; 2C-B 2.5 ng/ml): 79.2%; % B/Bo ([7]; 2C-B 5 ng/ml): 69.2%; % B/Bo ([7]; 2C-B 10 ng/ml): 59.5%; % B/Bo ([7]; 2C-B 20 ng/ml): 53.5%; % B/Bo ([7]; 2C-B 40 ng/ml): 44.6%; % B/Bo ([7]; 2C-B 80 ng/ml): 38.1%; IC50 (standard concentration which produces 50% inhibition of maximal signal) [7]: 0.024618 µg/mL; IC50 (standard concentration which produces 50% inhibition of maximal signal) ([7]; listed as 2CB): is 24.6 ng/ml).
"COc1cc(CCN)c(OC)cc1Cl [Hapten 2C-C, 1-(4-chloro-2,5-dimethoxyphenyl)ethan-2-amine]",–,–,–,<1.0%,148.6%,–,–
"COc1cc(CCN)c(OC)cc1C#N [Hapten 2C-CN, 1-(4-cyano-2,5-dimethoxyphenyl)ethan-2-amine]",–,–,–,<1.0%,66.8%,–,–
"COc1cc(CCN)c(OC)cc1C [Hapten 2C-D, 1-(2,5-dimethoxy4-methylphenyl)ethan-2-amine]",–,–,–,<1.0%,308.3%,–,–
"CCc1cc(OC)c(CCN)cc1OC [Hapten 2C-E, 1-(2,5-dimethoxy-4-ethylphenyl)ethan-2-amine]",–,–,–,<1.0%,178.8%,–,–
COc1ccc(OC)c(CCN)c1 [Hapten 2C-H],does not show cross-reactivity,3.1%,–,–,–,none,–
"COc1cc(CCN)c(OC)cc1I [Hapten 2C-I, 1-(2,5-dimethoxy-4-iodophenyl)ethan-2-amine]",does not show cross-reactivity,none,–,–,–,28.6%,–
"CCCc1cc(OC)c(CCN)cc1OC [Hapten 2C-P, 1-(2,5-dimethoxy-4-propylphenyl)ethan-2-amine]",–,–,–,<1.0%,276.8%,–,–
COc1cc(SC(C)C)c(OC)cc1CCN [Hapten 2C-T-4],does not show cross-reactivity,2.2%,–,–,–,none,–
CN[C@@H](C)Cc1ccccc1 [Methamphetamine],–,–,–,<1.0%,–,–,–
"COc1cc(OC)c(OC)cc1CC(C)N (centres unmarked) [TMA, 2,4,5-trimethoxyamphetamine]",–,–,5%,9.8%,–,–,–
